Laboratory results: the supplement of paper PMC10307832

How the values were obtained:
Experiment in all cases: relative viability (nuclei count vs DMSO), 5 days (fraction); higher = more cells survive
NCI-H23 = test system: NCI-H23
Method in brief: (§1)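 The day after seeding in 1536-well plates, lung cancer cell lines were treated by pin tool with a single drug, or with a fixed anchor-drug dose together with five library-drug doses (not always all listed) in √10 steps. After 5 days, a combined fix-and-stain solution (final 0.05% Triton X-100, 1% formaldehyde, 1 ug/ml Hoechst) was added. Nuclei counted on 4× images gave relative viability as treated counts over vehicle counts, reported as the median of duplicate plates.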

EPLC-272H = test system: EPLC-272H
Method in brief: as §1

H3255 = test system: H3255
Method in brief: as §1

PC-14 = test system: PC-14
Method in brief: as §1

201T = test system: 201T
Method in brief: as §1

COR-L 105 = test system: COR-L 105
Method in brief: as §1

NCI-H2126 = test system: NCI-H2126
Method in brief: as §1

NCI-H2347 = test system: NCI-H2347
Method in brief: as §1

NCI-H520 = test system: NCI-H520
Method in brief: as §1

HCC-78 = test system: HCC-78
Method in brief: as §1

LCLC-97TM1 = test system: LCLC-97TM1
Method in brief: as §1

NCI-H1915 = test system: NCI-H1915
Method in brief: as §1

NCI-H1666 = test system: NCI-H1666
Method in brief: as §1

NCI-H2405 = test system: NCI-H2405
Method in brief: as §1

NCI-H647 = test system: NCI-H647
Method in brief: as §1

LC-2-ad = test system: LC-2-ad
Method in brief: as §1

NCI-H2087 = test system: NCI-H2087
Method in brief: as §1

NCI-H650 = test system: NCI-H650
Method in brief: as §1

RERF-LC-KJ = test system: RERF-LC-KJ
Method in brief: as §1

NCI-H661 = test system: NCI-H661
Method in brief: as §1

CC(=O)O[C@@]12CO[C@@H]1C[C@H](O)[C@@]1(C)C(=O)[C@H](O)C3=C(C)[C@@H](OC(=O)[C@H](O)[C@@H](NC(=O)OC(C)(C)C)c4ccccc4)C[C@@](O)([C@@H](OC(=O)c4ccccc4)[C@H]21)C3(C)C [Docetaxel] + CS(=O)(=O)CCNCc1ccc(-c2ccc3ncnc(Nc4ccc(OCc5cccc(F)c5)c(Cl)c4)c3c2)o1 [Lapatinib] (partner 2 µM)
relative viability (NCI-H23; first compound 0.0002 µM): 0.963 | relative viability (NCI-H23; first compound 0.000632 µM): 0.725 | relative viability (NCI-H23; first compound 0.002 µM): 0.356 | relative viability (NCI-H23; first compound 0.006325 µM): 0.157 | relative viability (NCI-H23; first compound 0.02 µM): 0.123 | relative viability (EPLC-272H; first compound 0.0002 µM): 1.04 | relative viability (EPLC-272H; first compound 0.000632 µM): 0.76 | relative viability (EPLC-272H; first compound 0.002 µM): 0.199 | relative viability (EPLC-272H; first compound 0.006325 µM): 0.0933 | relative viability (EPLC-272H; first compound 0.02 µM): 0.114 | relative viability (H3255; first compound 0.0002 µM): 0.227 | relative viability (H3255; first compound 0.002 µM): 0.223 | relative viability (H3255; first compound 0.006325 µM): 0.19 | relative viability (H3255; first compound 0.02 µM): 0.175 | relative viability (PC-14; first compound 0.0002 µM): 0.272 | relative viability (PC-14; first compound 0.000632 µM): 0.417 | relative viability (PC-14; first compound 0.002 µM): 0.235 | relative viability (PC-14; first compound 0.006325 µM): 0.0958 | relative viability (PC-14; first compound 0.02 µM): 0.0629 | relative viability (201T; first compound 0.0002 µM): 0.917 | relative viability (201T; first compound 0.000632 µM): 0.937 | relative viability (201T; first compound 0.002 µM): 0.822 | relative viability (201T; first compound 0.006325 µM): 0.622 | relative viability (201T; first compound 0.02 µM): 0.373 | relative viability (COR-L 105; first compound 0.0002 µM): 0.369 | relative viability (COR-L 105; first compound 0.000632 µM): 0.277 | relative viability (COR-L 105; first compound 0.002 µM): 0.313 | relative viability (COR-L 105; first compound 0.006325 µM): 0.283 | relative viability (COR-L 105; first compound 0.02 µM): 0.268 | relative viability (NCI-H2126; first compound 0.0002 µM): 0.738 | relative viability (NCI-H2126; first compound 0.000632 µM): 0.683 | relative viability (NCI-H2126; first compound 0.002 µM): 0.562 | relative viability (NCI-H2126; first compound 0.006325 µM): 0.395 | relative viability (NCI-H2126; first compound 0.02 µM): 0.253 | relative viability (NCI-H2347; first compound 0.0002 µM): 1.01 | relative viability (NCI-H2347; first compound 0.000632 µM): 1.05 | relative viability (NCI-H2347; first compound 0.002 µM): 0.839 | relative viability (NCI-H2347; first compound 0.006325 µM): 0.512 | relative viability (NCI-H2347; first compound 0.02 µM): 0.479 | relative viability (NCI-H520; first compound 0.0002 µM): 0.856 | relative viability (NCI-H520; first compound 0.000632 µM): 0.684 | relative viability (NCI-H520; first compound 0.002 µM): 0.246 | relative viability (NCI-H520; first compound 0.006325 µM): 0.162 | relative viability (NCI-H520; first compound 0.02 µM): 0.12 | relative viability (HCC-78; first compound 0.0002 µM): 0.593 | relative viability (HCC-78; first compound 0.000632 µM): 0.634 | relative viability (HCC-78; first compound 0.002 µM): 0.461 | relative viability (HCC-78; first compound 0.006325 µM): 0.246 | relative viability (HCC-78; first compound 0.02 µM): 0.204 | relative viability (LCLC-97TM1; first compound 0.000632 µM): 0.865 | relative viability (LCLC-97TM1; first compound 0.002 µM): 0.155 | relative viability (LCLC-97TM1; first compound 0.006325 µM): 0.175 | relative viability (LCLC-97TM1; first compound 0.02 µM): 0.083 | relative viability (NCI-H1915; first compound 0.0002 µM): 0.937 | relative viability (NCI-H1915; first compound 0.000632 µM): 0.665 | relative viability (NCI-H1915; first compound 0.002 µM): 0.351 | relative viability (NCI-H1915; first compound 0.006325 µM): 0.146 | relative viability (NCI-H1915; first compound 0.02 µM): 0.118 | relative viability (NCI-H1666; first compound 0.0002 µM): 0.462 | relative viability (NCI-H1666; first compound 0.000632 µM): 0.461 | relative viability (NCI-H1666; first compound 0.002 µM): 0.299 | relative viability (NCI-H1666; first compound 0.006325 µM): 0.197 | relative viability (NCI-H1666; first compound 0.02 µM): 0.198 | relative viability (NCI-H2405; first compound 0.0002 µM): 1.03 | relative viability (NCI-H2405; first compound 0.000632 µM): 0.623 | relative viability (NCI-H2405; first compound 0.002 µM): 0.557 | relative viability (NCI-H2405; first compound 0.006325 µM): 0.488 | relative viability (NCI-H2405; first compound 0.02 µM): 0.345 | relative viability (NCI-H647; first compound 0.0002 µM): 0.868 | relative viability (NCI-H647; first compound 0.000632 µM): 0.217 | relative viability (NCI-H647; first compound 0.002 µM): 0.119 | relative viability (NCI-H647; first compound 0.006325 µM): 0.0918 | relative viability (NCI-H647; first compound 0.02 µM): 0.0858 | relative viability (LC-2-ad; first compound 0.0002 µM): 0.538 | relative viability (LC-2-ad; first compound 0.000632 µM): 0.296 | relative viability (LC-2-ad; first compound 0.002 µM): 0.14 | relative viability (LC-2-ad; first compound 0.006325 µM): 0.112 | relative viability (LC-2-ad; first compound 0.02 µM): 0.0888 | relative viability (NCI-H2087; first compound 0.0002 µM): 0.831 | relative viability (NCI-H2087; first compound 0.000632 µM): 0.678 | relative viability (NCI-H2087; first compound 0.002 µM): 0.351 | relative viability (NCI-H2087; first compound 0.006325 µM): 0.269 | relative viability (NCI-H2087; first compound 0.02 µM): 0.137 | relative viability (NCI-H650; first compound 0.0002 µM): 0.554 | relative viability (NCI-H650; first compound 0.000632 µM): 0.384 | relative viability (NCI-H650; first compound 0.002 µM): 0.307 | relative viability (NCI-H650; first compound 0.02 µM): 0.168 | relative viability (RERF-LC-KJ; first compound 0.0002 µM): 0.808 | relative viability (RERF-LC-KJ; first compound 0.000632 µM): 0.841 | relative viability (RERF-LC-KJ; first compound 0.002 µM): 0.498 | relative viability (RERF-LC-KJ; first compound 0.006325 µM): 0.177 | relative viability (RERF-LC-KJ; first compound 0.02 µM): 0.198 | relative viability (NCI-H661; first compound 0.0002 µM): 0.495 | relative viability (NCI-H661; first compound 0.000632 µM): 0.516 | relative viability (NCI-H661; first compound 0.002 µM): 0.4 | relative viability (NCI-H661; first compound 0.006325 µM): 0.369 | relative viability (NCI-H661; first compound 0.02 µM): 0.245
